# Measurements from US20260207572A1, “METHODS AND COMPOSITIONS FOR TREATMENT OF SUBJECTS WITH HEPATIC IMPAIRMENTS” (ELEVAR THERAPEUTICS, INC., priority 2022, published 2026).
# Like-named read-outs stand apart in the source and are kept apart here.
# Assay: Phase 1 single-dose plasma pharmacokinetics in subjects with normal hepatic function, mild or moderate hepatic impairment
# Type: in vivo, human
# Settings: for half-life / Tmax / concentration at 0.5 h / concentration at 1 h / concentration at 2 h / concentration at 3 h / concentration at 4 h / concentration at 6 h / concentration at 8 h / concentration at 12 h / concentration at 16 h / concentration at 24 h / concentration at 36 h / concentration at 48 h / AUC(0-t) / AUC(0-inf) / Cmax / Vd/F: human, plasma, po, 200 mg, 200 mg single oral dose
# From the text: Patients: 27 subjects were enrolled within the following groups based on their Child-Pugh (CP) classification score: • Group 1: Matched-control healthy subjects with normal hepatic function; • Group 2: Subjects with mild hepatic impairment (CP Class A, score of 5 or 6); • Group 3: Subjects with moderate hepatic impairment (CP Class B, score of 7 to 9).
# A parallel design strategy was adopted for the hepatic impairment groups. Each matched-control healthy subject (Group 1) was enrolled following the enrollment of a mild and/or moderate hepatic impairment subject and was demographically matched by age (±10 years), BMI (±20%), and sex to the enrolled hepatic impairment subject(s). Subjects with normal hepatic function were not matched to more than 1 hepatically-impaired subject within an impairment group; however, subjects with normal hepatic function could be matched to 1 subject from more than 1 hepatic impairment group.
# Other noncompartmental parameters could be reported.
# The paired t-test was performed separately for each hepatic impairment group and the corresponding matched healthy controls. Estimates of geometric mean ratios in primary PK parameters between each level of impaired hepatic function versus the matched healthy controls were presented along with the corresponding 90% confidence intervals (CIs) for the geometric mean ratios. The p-value assessing the difference between each impairment group and the healthy control group was presented.
# The PK analysis was conducted by Covance Early Clinical Biometrics using WinNonlin Version 8.1.
# [1] = Moderate Hepatic Impairment, read-out: Plasma concentration, Arithmetic Mean
# [2] = Moderate Hepatic Impairment, read-out: Plasma concentration, Geometric Mean
# [3] = Moderate Hepatic Impairment, read-out: Plasma concentration, Median
# [4] = Normal Hepatic Function, read-out: Plasma concentration, Arithmetic Mean
# [5] = Normal Hepatic Function, read-out: Plasma concentration, Geometric Mean
# [6] = Normal Hepatic Function, read-out: Plasma concentration, Median
smiles,measurement,setting,value
"N#CC1(c2ccc(NC(=O)c3cccnc3NCc3ccncc3)cc2)CCCC1 [Rivoceranib, N-[4-(1-cyanocyclopentyl)phenyl]-2-{[(pyridin-4-yl)methyl]amino} pyridine-3-carboxamide]",half-life,"Moderate Hepatic Impairment, read-out: t1/2, Geometric Mean (converted)",1100 min
same,half-life,"Moderate Hepatic Impairment, read-out: t1/2, Median (converted)",1090 min
same,Tmax,"Moderate Hepatic Impairment, read-out: tmax, Arithmetic Mean",2 h
same,Tmax,"Moderate Hepatic Impairment, read-out: tmax, Geometric Mean",1.8 h
same,Tmax,"Moderate Hepatic Impairment, read-out: tmax, Median",2 h
same,concentration at 0.5 h,[1],115 ng/mL
same,concentration at 0.5 h,[2],57.1 ng/mL
same,concentration at 0.5 h,[3],92.2 ng/mL
same,concentration at 1 h,[1],195 ng/mL
same,concentration at 1 h,[2],140 ng/mL
same,concentration at 1 h,[3],154 ng/mL
same,concentration at 2 h,[1],190 ng/mL
same,concentration at 2 h,[2],178 ng/mL
same,concentration at 2 h,[3],170 ng/mL
same,concentration at 3 h,[1],166 ng/mL
same,concentration at 3 h,[2],154 ng/mL
same,concentration at 3 h,[3],162 ng/mL
same,concentration at 4 h,[1],134 ng/mL
same,concentration at 4 h,[2],121 ng/mL
same,concentration at 4 h,[3],132 ng/mL
same,concentration at 6 h,[1],106 ng/mL
same,concentration at 6 h,[2],96.8 ng/mL
same,concentration at 6 h,[3],93.8 ng/mL
same,concentration at 8 h,[1],85.5 ng/mL
same,concentration at 8 h,[2],80.3 ng/mL
same,concentration at 8 h,[3],85 ng/mL
same,concentration at 12 h,[1],62.3 ng/mL
same,concentration at 12 h,[2],58.2 ng/mL
same,concentration at 12 h,[3],54.2 ng/mL
same,concentration at 16 h,[1],52.6 ng/mL
same,concentration at 16 h,[2],45.3 ng/mL
same,concentration at 16 h,[3],43.4 ng/mL
same,concentration at 24 h,[1],44.3 ng/mL
same,concentration at 24 h,[2],38.7 ng/mL
same,concentration at 24 h,[3],36.5 ng/mL
same,concentration at 36 h,[1],24 ng/mL
same,concentration at 36 h,[2],20.9 ng/mL
same,concentration at 36 h,[3],24.9 ng/mL
same,concentration at 48 h,[1],17.4 ng/mL
same,concentration at 48 h,[2],18.1 ng/mL
same,concentration at 48 h,[3],15.5 ng/mL
same,AUC(0-t),"Normal Hepatic Function, read-out: AUC0-t, Arithmetic Mean",2690 ng·h/mL
same,AUC(0-t),"Normal Hepatic Function, read-out: AUC0-t, Geometric Mean",2560 ng·h/mL
same,AUC(0-t),"Normal Hepatic Function, read-out: AUC0-t, Median",2780 ng·h/mL
same,AUC(0-inf),"Normal Hepatic Function, read-out: AUC0-∞, Arithmetic Mean",3180 ng·h/mL
same,AUC(0-inf),"Normal Hepatic Function, read-out: AUC0-∞, Geometric Mean",3050 ng·h/mL
same,AUC(0-inf),"Normal Hepatic Function, read-out: AUC0-∞, Median",2880 ng·h/mL
same,Cmax,"Normal Hepatic Function, read-out: Cmax, Arithmetic Mean",271 ng/mL
same,Cmax,"Normal Hepatic Function, read-out: Cmax, Geometric Mean",250 ng/mL
same,Cmax,"Normal Hepatic Function, read-out: Cmax, Median",270 ng/mL
same,Vd/F,"Normal Hepatic Function, read-out: VZ/F, Arithmetic Mean",1340 L
same,Vd/F,"Normal Hepatic Function, read-out: VZ/F, Geometric Mean",1310 L
same,Vd/F,"Normal Hepatic Function, read-out: VZ/F, Median",1190 L
same,half-life,"Normal Hepatic Function, read-out: t1/2, Arithmetic Mean (converted)",1070 ± 516 min
same,half-life,"Normal Hepatic Function, read-out: t1/2, Geometric Mean (converted)",976 min
same,half-life,"Normal Hepatic Function, read-out: t1/2, Median (converted)",1020 min
same,Tmax,"Normal Hepatic Function, read-out: tmax, Arithmetic Mean",2.5 h
same,Tmax,"Normal Hepatic Function, read-out: tmax, Geometric Mean",2.2 h
same,Tmax,"Normal Hepatic Function, read-out: tmax, Median",2 h
same,concentration at 0.5 h,[4],17.7 ng/mL
same,concentration at 0.5 h,[5],15.2 ng/mL
same,concentration at 0.5 h,[6],6.8 ng/mL
same,concentration at 1 h,[4],136 ng/mL
same,concentration at 1 h,[5],92.9 ng/mL
same,concentration at 1 h,[6],74.4 ng/mL
same,concentration at 2 h,[4],226 ng/mL
same,concentration at 2 h,[5],204 ng/mL
same,concentration at 2 h,[6],236 ng/mL
same,concentration at 3 h,[4],216 ng/mL
same,concentration at 3 h,[5],192 ng/mL
same,concentration at 3 h,[6],199 ng/mL
same,concentration at 4 h,[4],164 ng/mL
same,concentration at 4 h,[5],149 ng/mL
same,concentration at 4 h,[6],147 ng/mL
same,concentration at 6 h,[4],131 ng/mL
same,concentration at 6 h,[5],117 ng/mL
same,concentration at 6 h,[6],106 ng/mL
same,concentration at 8 h,[4],99.4 ng/mL
same,concentration at 8 h,[5],89.5 ng/mL
same,concentration at 8 h,[6],81 ng/mL
same,concentration at 12 h,[4],67.8 ng/mL
same,concentration at 12 h,[5],63.2 ng/mL
same,concentration at 12 h,[6],61.9 ng/mL
same,concentration at 16 h,[4],48.8 ng/mL
same,concentration at 16 h,[5],45.7 ng/mL
same,concentration at 16 h,[6],49.7 ng/mL
same,concentration at 24 h,[4],43.2 ng/mL
same,concentration at 24 h,[5],40.4 ng/mL
same,concentration at 24 h,[6],43 ng/mL
same,concentration at 36 h,[4],23.9 ng/mL
same,concentration at 36 h,[5],21.3 ng/mL
same,concentration at 36 h,[6],24.2 ng/mL
same,concentration at 48 h,[4],14.9 ng/mL
same,concentration at 48 h,[5],14.8 ng/mL
same,concentration at 48 h,[6],15.9 ng/mL
same,exposure in mild or moderate hepatic impairment compared to normal hepatic function,same amount of rivoceranib,do not have a statistically significant difference in exposure
